# Measurements published in PMC5644278 (Alzheimer's & Dementia : Translational Research & Clinical …, 2016).
# Key:
# Wistar rats = experiment: 28-day intranasal toxicity study; type: in vivo
# healthy male subjects [1] = experiment: Treatment emergent adverse events, single dose study; type: in vivo, human; details: for Any event (treatment emerging adverse events) / Headache / Nasal discomfort / Rhinorrhea / Sneezing / Cold sweat or hyperhidrosis / Nausea / Vomiting / Diarrhea: number of subjects, percentage in parentheses
# healthy male subjects [2] = experiment: Pharmaco-electroencephalography, single dose; type: in vivo, human
# [3] = Gln-1062 5.5 mg, healthy young males
# [4] = Gln-1062 5.5 mg, healthy young subjects
# [5] = Gln-1062 11 mg, healthy young males
# [6] = Gln-1062 11 mg, healthy young subjects
# [7] = Gln-1062 22 mg, healthy elderly males
# [8] = Gln-1062 22 mg, healthy elderly subjects
# [9] = Gln-1062 33 mg, healthy elderly males
# [10] = Gln-1062 33 mg, healthy elderly subjects
# [11] = Gln-1062 44 mg, healthy elderly males
# [12] = Gln-1062 44 mg, healthy elderly subjects
# [13] = Gln-1062 5.5 mg vs Placebo, healthy young males
# [14] = Gln-1062 11 mg vs Placebo, healthy young males
smiles,measurement,setting,value
COc1ccc2c3c1O[C@H]1C[C@@H](OC(=O)c4ccccc4)C=C[C@@]31CCN(C)C2 [Gln-1062],human equivalent dose,Wistar rats; estimated from the rat NOAEL,48 mg
same,NOAEL,"Wistar rats; intranasal, 28-day, Wistar rats",5 mg/kg
same,Any event (treatment emerging adverse events),healthy male subjects [1]; [3],6 (100)
same,Headache,healthy male subjects [1]; [3],2 (33.3)
same,Nasal discomfort,healthy male subjects [1]; [3],6 (100)
same,Rhinorrhea,healthy male subjects [1]; [3],2 (33.3)
same,Sneezing,healthy male subjects [1]; [3],1 (16.7)
same,"Diarrhea, incidence",healthy male subjects [1]; [4],did not occur
same,"Vomiting, incidence",healthy male subjects [1]; [4],did not occur
same,"Cold sweat or hyperhidrosis, incidence",healthy male subjects [1]; Gln-1062 11 mg,16.7%
same,"Nausea, incidence",healthy male subjects [1]; [5],16.7%
same,Any event (treatment emerging adverse events),healthy male subjects [1]; [5],6 (100)
same,Cold sweat or hyperhidrosis,healthy male subjects [1]; [5],1 (16.7)
same,Headache,healthy male subjects [1]; [5],2 (33.3)
same,Nasal discomfort,healthy male subjects [1]; [5],6 (100)
same,Nausea,healthy male subjects [1]; [5],1 (16.7)
same,Rhinorrhea,healthy male subjects [1]; [5],4 (66.7)
same,Sneezing,healthy male subjects [1]; [5],1 (16.7)
same,Vomiting,healthy male subjects [1]; [5],1 (16.7)
same,"Diarrhea, incidence",healthy male subjects [1]; [6],did not occur
same,"Vomiting, incidence",healthy male subjects [1]; [6],16.7%
same,"Nausea, incidence",healthy male subjects [1]; [7],16.7%
same,Any event (treatment emerging adverse events),healthy male subjects [1]; [7],5 (83.3)
same,Diarrhea,healthy male subjects [1]; [7],1 (16.7)
same,Headache,healthy male subjects [1]; [7],3 (50)
same,Nasal discomfort,healthy male subjects [1]; [7],4 (66.7)
same,Nausea,healthy male subjects [1]; [7],1 (16.7)
same,Rhinorrhea,healthy male subjects [1]; [7],2 (33.3)
same,Sneezing,healthy male subjects [1]; [7],1 (16.7)
same,"Diarrhea, incidence",healthy male subjects [1]; [8],16.7%
same,"Vomiting, incidence",healthy male subjects [1]; [8],did not occur at all
same,Any event (treatment emerging adverse events),healthy male subjects [1]; [9],5 (83.3)
same,Diarrhea,healthy male subjects [1]; [9],1 (16.7)
same,Headache,healthy male subjects [1]; [9],2 (33.3)
same,Nasal discomfort,healthy male subjects [1]; [9],4 (66.7)
same,Nausea,healthy male subjects [1]; [9],3 (50)
same,Rhinorrhea,healthy male subjects [1]; [9],1 (16.7)
same,Sneezing,healthy male subjects [1]; [9],1 (16.7)
same,Vomiting,healthy male subjects [1]; [9],2 (33.3)
same,"Diarrhea, incidence",healthy male subjects [1]; [10],16.7%
same,"Vomiting, incidence",healthy male subjects [1]; [10],33.3%
same,"Cold sweat or hyperhidrosis, incidence",healthy male subjects [1]; Gln-1062 44 mg,50%
same,Any event (treatment emerging adverse events),healthy male subjects [1]; [11],5 (83.3)
same,Cold sweat or hyperhidrosis,healthy male subjects [1]; [11],3 (50)
same,Diarrhea,healthy male subjects [1]; [11],1 (16.7)
same,Nasal discomfort,healthy male subjects [1]; [11],3 (50)
same,Nausea,healthy male subjects [1]; [11],3 (50)
same,Rhinorrhea,healthy male subjects [1]; [11],3 (50)
same,Sneezing,healthy male subjects [1]; [11],3 (50)
same,Vomiting,healthy male subjects [1]; [11],2 (33.3)
same,"Diarrhea, incidence",healthy male subjects [1]; [12],16.7%
same,"Vomiting, incidence",healthy male subjects [1]; [12],33.3%
same,"Nausea, incidence",healthy male subjects [1]; Gln-1062 at the highest dose levels (n = 3),50%
same,single dose levels safe and well tolerated,healthy male subjects [1]; intranasal single dose,up to 33 mg
same,EEG Alpha Fz-Cz (uV),healthy male subjects [2]; [13],−13.2% (−30.5% to 8.5%) P = .1914
same,EEG Alpha Pz-Oz (uV),healthy male subjects [2]; [13],−8.9% (−23.8% to 8.9%) P = .2782
same,EEG Alpha Fz-Cz (uV),healthy male subjects [2]; [14],−0.8% (−19.5% to 22.1%) P = .9310
same,EEG Alpha Pz-Oz (uV),healthy male subjects [2]; [14],−13.1% (−27.2% to 3.7%) P = .1086
same,EEG Alpha Fz-Cz (uV),"healthy male subjects [2]; Gln-1062 22 mg vs Placebo, healthy elderly males",7.8% (−7.0% to 25.1%) P = .3088
